Measured values taken from patent publication US20230346793A1, “Compositions and Methods for Treating SARS-CoV-2” (priority 2020, published 2023).

Legend:
calmodulin = calmodulin (Homo sapiens, UniProt P0DP23); settings: Winkler 1987; Zimmer and Hofmann 1984; Reiermann and Rüegg 1986; cited from earlier work
SARS-CoV-2 = experiment: microbe, parasite or virus in culture; assay type: cell-based; settings: for EC50: Severe acute respiratory syndrome coronavirus 2, Vero C1008, in Primates, read-out: EC50 (effective concentration that gave half-maximal response), inhibition of SARS-CoV-2 infection; for inhibition of SARS-CoV-2 infection: VeroE6 plaque reduction assay, dose-dependent analysis

| SMILES | inhibition of calmodulin (calmodulin) | EC50 (SARS-CoV-2) | inhibition of SARS-CoV-2 infection (SARS-CoV-2) |
| --- | --- | --- | --- |
| CC(C)COCC(CN(Cc1ccccc1)c1ccccc1)N1CCCC1 (centres unmarked) [BPD, Bepridil] | inhibit calmodulin | 7.13 µM | strong inhibition of SARS-CoV-2 infection in a dose-dependent manner |
| CN1CCN(CCCN2c3ccccc3Sc3ccc(C(F)(F)F)cc32)CC1 [TFP, Trifluoperazine] | – | 7.7 µM | potently inhibited SARS-CoV-2 infection in a dose-dependent fashion |
